Columns and labels:
Assay in all cases: relative viability (nuclei count vs DMSO), 5 days (fraction); higher = more cells survive
[1] = compound: COc1cc2nc(N3CCCN(C)CC3)nc(NC3CCN(Cc4ccccc4)CC3)c2cc1OC + Cc1cc(Nc2cc(N3CCN(C)CC3)nc(Sc3ccc(NC(=O)C4CC4)cc3)n2)n[nH]1 [Tozasertib] (partner 0.1 µM)
How it was run: (§1)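 The day after seeding in 1536-well plates, lung cancer cell lines were treated by pin tool with a single drug, or with a fixed anchor-drug dose together with five library-drug doses (not always all listed) in √10 steps. After 5 days, a combined fix-and-stain solution (final 0.05% Triton X-100, 1% formaldehyde, 1 ug/ml Hoechst) was added. Nuclei counted on 4× images gave relative viability as treated counts over vehicle counts, reported as the median of duplicate plates.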

AZD6482 + Navitoclax = compound: Cc1cc([C@@H](C)Nc2ccccc2C(=O)O)c2nc(N3CCOCC3)cc(=O)n2c1 [AZD6482] + CC1(C)CCC(c2ccc(Cl)cc2)=C(CN2CCN(c3ccc(C(=O)NS(=O)(=O)c4ccc(N[C@H](CCN5CCOCC5)CSc5ccccc5)c(S(=O)(=O)C(F)(F)F)c4)cc3)CC2)C1 [Navitoclax] (partner 0.5 µM)
How it was run: as §1

AZD6482 + Crizotinib = compound: Cc1cc([C@@H](C)Nc2ccccc2C(=O)O)c2nc(N3CCOCC3)cc(=O)n2c1 [AZD6482] + C[C@@H](Oc1cc(-c2cnn(C3CCNCC3)c2)cnc1N)c1c(Cl)ccc(F)c1Cl [Crizotinib] (partner 1 µM)
How it was run: as §1

AZD6482 + Pemetrexed = compound: Cc1cc([C@@H](C)Nc2ccccc2C(=O)O)c2nc(N3CCOCC3)cc(=O)n2c1 [AZD6482] + Nc1nc2[nH]cc(CCc3ccc(C(=O)N[C@@H](CCC(=O)O)C(=O)O)cc3)c2c(=O)[nH]1 [Pemetrexed] (partner 0.2 µM)
How it was run: as §1

Cell Line | relative viability ([1]; first compound 0.2 µM) | relative viability ([1]; first compound 0.6325 µM) | relative viability ([1]; first compound 2 µM) | relative viability ([1]; first compound 6.325 µM) | relative viability (AZD6482 + Navitoclax; first compound 0.08 µM) | relative viability (AZD6482 + Navitoclax; first compound 0.253 µM) | relative viability (AZD6482 + Navitoclax; first compound 0.8 µM) | relative viability (AZD6482 + Navitoclax; first compound 2.53 µM) | relative viability (AZD6482 + Navitoclax; first compound 8 µM) | relative viability (AZD6482 + Crizotinib; first compound 0.08 µM) | relative viability (AZD6482 + Crizotinib; first compound 0.253 µM) | relative viability (AZD6482 + Crizotinib; first compound 0.8 µM) | relative viability (AZD6482 + Crizotinib; first compound 2.53 µM) | relative viability (AZD6482 + Crizotinib; first compound 8 µM) | relative viability (AZD6482 + Pemetrexed; first compound 0.08 µM) | relative viability (AZD6482 + Pemetrexed; first compound 0.253 µM) | relative viability (AZD6482 + Pemetrexed; first compound 0.8 µM) | relative viability (AZD6482 + Pemetrexed; first compound 2.53 µM) | relative viability (AZD6482 + Pemetrexed; first compound 8 µM)
HCC-366 | 0.117 | 0.108 | 0.105 | 0.0544 | 0.937 | 1.01 | 1.11 | 0.901 | 0.908 | 0.304 | 0.447 | 0.395 | 0.453 | 0.472 | 0.173 | 0.202 | 0.204 | 0.209 | 0.275
EMC-BAC-2 | 0.264 | 0.258 | 0.32 | 0.317 | 1.09 | 1.08 | 1.12 | 0.916 | 0.971 | 0.66 | 0.717 | 0.858 | 0.617 | 0.653 | 0.415 | 0.45 | 0.438 | 0.414 | 0.413
NCI-H2405 | 0.711 | 0.696 | 0.83 | 0.74 | 0.488 | – | 0.778 | 0.489 | 0.509 | 0.577 | 0.772 | 0.893 | 0.587 | 0.546 | 0.81 | 0.977 | 0.987 | 0.569 | 0.436
NCI-H1944 | 0.248 | 0.277 | 0.268 | 0.28 | 1.02 | 0.953 | 1.03 | 0.887 | 0.821 | 1.01 | 1.07 | 1.12 | 0.836 | 0.792 | 0.535 | 0.575 | 0.604 | 0.427 | 0.499
EPLC-272H | 0.247 | 0.269 | 0.344 | 0.29 | 0.943 | – | 0.994 | 0.896 | 0.775 | 0.796 | – | 0.835 | 0.649 | 0.584 | 0.24 | 0.382 | 0.383 | 0.424 | 0.269
NCI-H1915 | 0.441 | 0.465 | 0.464 | 0.426 | 0.772 | 0.696 | 0.83 | 0.739 | 0.739 | 0.845 | 0.8 | 0.935 | 0.838 | 0.863 | 0.491 | 0.434 | 0.513 | 0.349 | 0.452
NCI-H596 | 0.961 | 1.1 | 0.91 | 0.893 | 0.596 | 0.827 | 0.925 | 0.912 | 0.836 | 0.792 | 0.824 | 1 | 0.943 | 0.871 | 0.451 | 0.485 | 0.486 | 0.462 | 0.492
NCI-H322M | 0.481 | 0.451 | 0.417 | 0.437 | 1.24 | 1 | 1.07 | 0.675 | 0.798 | 0.769 | 0.826 | 0.79 | 0.627 | 0.741 | 0.572 | 0.61 | 0.62 | 0.49 | 0.498

From the supplement of paper PMC10307832
